Each structure is given as a SMILES string.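 Protocol summary: plate cells (96-well), add compound at 5 concentrations, incubate 48 h, interpolate endpoints linearly. TGI: concentration producing complete growth inhibition.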

Test systems include A549 NSCLC; A498 renal; OVCAR-5 ovarian; HT29 colon; CAKI-1 renal; RXF 393 renal; SF-295 CNS; HOP-92 NSCLC; UO-31 renal; MALME-3M melanoma; HCT-15 colon; T-47D breast; DU-145 prostate; UACC-62 melanoma; K-562 leukemia; MOLT-4 leukemia; KM12 colon; OVCAR-8 ovarian; NCI/ADR-RES ovarian.
Common to all, as to experiment: NCI-60 cell line screen, 48 h

As for `Nc1ccc(C2SCC(=O)N2NS(=O)(=O)c2cccc(C(=O)O)c2)cc1` (stereo not drawn), the TGI with A549 NSCLC, in the experiment with A498 renal, in the experiment on OVCAR-5 ovarian, in the experiment on HT29 colon, in the experiment on CAKI-1 renal and with RXF 393 renal was over 100 µM throughout. For the same compound, the TGI in the experiment with SF-295 CNS was over 100 µM; in the experiment with HOP-92 NSCLC it was over 100 µM; in the experiment on UO-31 renal, over 100 µM; with MALME-3M melanoma, 55.7 µM; in the experiment on HCT-15 colon, over 100 µM; in the experiment on T-47D breast, over 100 µM. Besides, the TGI in the experiment with DU-145 prostate, in the experiment with UACC-62 melanoma, in the experiment on K-562 leukemia, with MOLT-4 leukemia, in the experiment on KM12 colon and in the experiment with OVCAR-8 ovarian was over 100 µM throughout.

Regarding `COc1ccc(-c2cc(=O)c3cc(O)ccc3o2)c(OC)c1OC`, the TGI in the experiment with A549 NSCLC was over 100 µM; with OVCAR-5 ovarian, 81.4 µM; with HT29 colon, over 100 µM; with CAKI-1 renal, over 100 µM; in the experiment with RXF 393 renal, 89.4 µM; with SF-295 CNS it was 69.2 µM. Besides, the TGI is 98 µM in the experiment with HOP-92 NSCLC; over 100 µM in the experiment with MALME-3M melanoma; over 100 µM in the experiment with HCT-15 colon; over 100 µM in the experiment on UACC-62 melanoma; over 100 µM with K-562 leukemia; 87.7 µM in the experiment with KM12 colon.

In the case of `CC1CC(=O)Nc2ccccc2N1C(=O)C1CC1` (stereo not drawn), the TGI in the experiment on A549 NSCLC, in the experiment on A498 renal, with OVCAR-5 ovarian, with HT29 colon, in the experiment with CAKI-1 renal and with RXF 393 renal was over 100 µM throughout. Moreover, the TGI in the experiment with SF-295 CNS, in the experiment on HOP-92 NSCLC, in the experiment on UO-31 renal, with MALME-3M melanoma, in the experiment with HCT-15 colon and in the experiment with T-47D breast was over 100 µM throughout. For the same compound, the TGI with DU-145 prostate, in the experiment on K-562 leukemia, in the experiment with MOLT-4 leukemia, in the experiment with KM12 colon and in the experiment on OVCAR-8 ovarian was over 100 µM in each case.

Take `CC(C)c1c(O[Si](C(C)C)(C(C)C)C(C)C)cc2c(c1O)CC[C@H]1C(C)(C)CCC[C@]21C`: the TGI with A549 NSCLC, in the experiment on A498 renal, with OVCAR-5 ovarian, with HT29 colon, with CAKI-1 renal and in the experiment on RXF 393 renal was over 100 µM in each case. For the same compound, the TGI in the experiment with NCI/ADR-RES ovarian, in the experiment on SF-295 CNS, in the experiment on HOP-92 NSCLC, with UO-31 renal, in the experiment on MALME-3M melanoma and in the experiment on HCT-15 colon was over 100 µM throughout. The TGI with DU-145 prostate, in the experiment with UACC-62 melanoma, in the experiment with K-562 leukemia, with MOLT-4 leukemia, in the experiment on KM12 colon and in the experiment with OVCAR-8 ovarian was over 100 µM throughout.

With `COc1ccc(Nc2cc(=O)[nH]c(=O)[nH]2)cc1`, the TGI with A549 NSCLC, in the experiment on A498 renal, with OVCAR-5 ovarian, with HT29 colon, with RXF 393 renal and with NCI/ADR-RES ovarian was over 100 µM each time. Further, the TGI in the experiment on SF-295 CNS, in the experiment with HOP-92 NSCLC, with UO-31 renal, in the experiment with MALME-3M melanoma, in the experiment on HCT-15 colon and in the experiment with DU-145 prostate was over 100 µM each time. Also, the TGI with K-562 leukemia, in the experiment on MOLT-4 leukemia, in the experiment on KM12 colon and with OVCAR-8 ovarian was over 100 µM each time.

For `Cn1c(=O)cc(Nc2ccc(N)cc2)[nH]c1=O`, the TGI in the experiment with A549 NSCLC, in the experiment with A498 renal, in the experiment on OVCAR-5 ovarian, in the experiment on HT29 colon, in the experiment with CAKI-1 renal and in the experiment on RXF 393 renal was over 100 µM in each case. Also, the TGI with NCI/ADR-RES ovarian, with SF-295 CNS, in the experiment with HOP-92 NSCLC, in the experiment on UO-31 renal, in the experiment on MALME-3M melanoma and with HCT-15 colon was over 100 µM each time. The TGI in the experiment with T-47D breast, with UACC-62 melanoma, in the experiment on K-562 leukemia, in the experiment on MOLT-4 leukemia, in the experiment with KM12 colon and in the experiment with OVCAR-8 ovarian was over 100 µM throughout.

Regarding `O=C1CN(c2ccccc2)C(=O)CN1NCNN1CC(=O)N(c2ccccc2)CC1=O`, the TGI with A549 NSCLC, in the experiment with A498 renal, in the experiment on OVCAR-5 ovarian, in the experiment on HT29 colon, in the experiment on CAKI-1 renal and in the experiment with RXF 393 renal was over 100 µM throughout. The TGI with SF-295 CNS, in the experiment with HOP-92 NSCLC, with UO-31 renal, in the experiment with MALME-3M melanoma, in the experiment on HCT-15 colon and with DU-145 prostate was over 100 µM throughout. The TGI in the experiment on UACC-62 melanoma, in the experiment on MOLT-4 leukemia, in the experiment with KM12 colon and in the experiment with OVCAR-8 ovarian was over 100 µM each time.

For `CC(C)[Si](Oc1ccc(CC2N(C(=O)c3ccc([N+](=O)[O-])cc3)C(CCc3ccccc3)CC2(C)C=O)cc1)(C(C)C)C(C)C` (stereo not drawn), the TGI was over 100 µM in the experiment on A498 renal; over 100 µM in the experiment on OVCAR-5 ovarian; over 100 µM in the experiment with CAKI-1 renal; 28.2 µM with RXF 393 renal; over 100 µM with SF-295 CNS; 82.8 µM in the experiment on HOP-92 NSCLC. The TGI in the experiment with UO-31 renal, in the experiment with MALME-3M melanoma, with HCT-15 colon, with T-47D breast, with DU-145 prostate and in the experiment on UACC-62 melanoma was over 100 µM in each case. In addition, the TGI with OVCAR-8 ovarian came to 42.5 µM.

The values above are taken from PubChem BioAssay (NCI).
